pEC50: −log10 of the molar value.
System: monocistronic NK5.1 HCV replicon in Huh7 cells
Experiment: HCV replicon assay, monocistronic replicon cell line
Assay type: cell-based, hepatitis C virus
Settings: Hepatitis C virus, Huh-7, 72 h; table T3 (compounds 471-640); monocistronic replicon in Huh7 cells, 3 days incubation, HCV RNA/GAPDH RNA by TaqMan RT-PCR; read-out: Mono EC50 Median
Summary of the method: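 EC50 derives from the HCV RNA/GAPDH RNA ratio by one-step TaqMan RT-PCR, relative to DMSO-only wells. Compounds (six half-log concentrations, 0.6% DMSO) were incubated 3 days at 37 °C with NK5.1 monocistronic replicon Huh7 cells plated a day earlier.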

SMILES	pEC50
CC(C)(C)c1ccc(O)c(-c2nc(-c3ccc(C(F)(F)F)cn3)n[nH]2)c1 [Compound 507, 4-tert-Butyl-2-[5-(5-trifluoromethyl-pyridin-2-yl)-2H-[1,2,4]triazol-3-yl]-phenol]	< 4.72
O=[N+]([O-])c1ccc(O)c(-c2nc(-c3ccc(C(F)(F)F)cn3)n[nH]2)c1 [Compound 508, 4-Nitro-2-[5-(5-trifluoromethyl-pyridin-2-yl)-2H-[1,2,4]triazol-3-yl]-phenol]	< 4.72
Oc1ccc(F)cc1-c1nc(-c2ccc(C(F)(F)F)cn2)n[nH]1 [Compound 509, 4-Fluoro-2-[5-(5-trifluoromethyl-pyridin-2-yl)-2H-[1,2,4]triazol-3-yl]-phenol]	< 4.72
COc1ccc(O)c(-c2nc(-c3ccc(C(F)(F)F)cn3)n[nH]2)c1 [Compound 510, 4-Methoxy-2-[5-(5-trifluoromethyl-pyridin-2-yl)-2H-[1,2,4]triazol-3-yl]-phenol]	< 4.72
Oc1ccc(Cl)cc1-c1nc(-c2ccc(C(F)(F)F)cn2)n[nH]1 [Compound 511, 4-Chloro-2-[5-(5-trifluoromethyl-pyridin-2-yl)-2H-[1,2,4]triazol-3-yl]-phenol]	< 4.72
CCOc1cccc(-c2nc(-c3ccc(C(F)(F)F)cn3)n[nH]2)c1O [Compound 512, 6-Ethoxy-2-[5-(5-trifluoromethyl-pyridin-2-yl)-2H-[1,2,4]triazol-3-yl]-phenol]	< 4.72
Oc1cc(OCc2ccccc2)ccc1-c1nc(-c2ccc(C(F)(F)F)cn2)n[nH]1 [Compound 513, 5-Benzyloxy-2-[5-(5-trifluoromethyl-pyridin-2-yl)-2H-[1,2,4]triazol-3-yl]-phenol]	< 4.72
Fc1cc(-c2nc(-c3ccc(C(F)(F)F)cn3)n[nH]2)ccc1-c1ccccc1 [Compound 514, 2-[5-(2-Fluoro-biphenyl-4-yl)-1H-[1,2,4]triazol-3-yl]-5-trifluoromethyl-pyridine]	< 4.72
Oc1ccc(Br)cc1-c1nc(-c2ccc(C(F)(F)F)cn2)n[nH]1 [Compound 515, 4-Bromo-2-[5-(5-trifluoromethyl-pyridin-2-yl)-2H-[1,2,4]triazol-3-yl]-phenol]	< 4.72
Cc1ccc(O)c(-c2nc(-c3ccc(C(F)(F)F)cn3)n[nH]2)c1 [Compound 516, 4-Methyl-2-[5-(5-trifluoromethyl-pyridin-2-yl)-2H-[1,2,4]triazol-3-yl]-phenol]	< 4.72
COc1ccc(-c2nc(-c3ccc(C(F)(F)F)cn3)n[nH]2)c(O)c1 [Compound 517, 5-Methoxy-2-[5-(5-trifluoromethyl-pyridin-2-yl)-2H-[1,2,4]triazol-3-yl]-phenol]	< 4.72
Oc1ccccc1-c1nc(-c2ccc(C(F)(F)F)cn2)n[nH]1 [Compound 518, 2-[5-(5-trifluoromethyl-pyridin-2-yl)-2H-[1,2,4]triazol-3-yl]-phenol]	< 4.72
COc1cccc(-c2nc(-c3ccc(C(F)(F)F)cn3)n[nH]2)c1O [Compound 519, 6-Methoxy-2-[5-(5-trifluoromethyl-pyridin-2-yl)-2H-[1,2,4]triazol-3-yl]-phenol]	< 4.72
O=[N+]([O-])c1cccc(-c2nc(-c3ccc(C(F)(F)F)cn3)n[nH]2)c1 [Compound 520, 2-[5-(3-Nitro-phenyl)-1H-[1,2,4]triazol-3-yl]-5-trifluoromethyl-pyridine]	< 4.72
CCN(CC)c1ccc(-c2nc(-c3ccc(C(F)(F)F)cn3)n[nH]2)c(O)c1 [Compound 521, 5-Diethylamino-2-[5-(5-trifluoromethyl-pyridin-2-yl)-2H-[1,2,4]triazol-3-yl]-phenol]	< 4.72
Oc1ccc(O)c(-c2nc(-c3ccc(C(F)(F)F)cn3)n[nH]2)c1 [Compound 522, 4-Hydroxy-2-[5-(5-trifluoromethyl-pyridin-2-yl)-2H-[1,2,4]triazol-3-yl]-phenol]	< 4.72

SMILES	pEC50
COc1cccc(-c2nc(-c3ccc(C(F)(F)F)cn3)n[nH]2)c1 [Compound 523, 2-[5-(3-Methoxy-phenyl)-1H-[1,2,4]triazol-3-yl]-5-trifluoromethyl-pyridine]	< 4.72
COc1ccc(F)c(-c2nc(-c3ccc(C(F)(F)F)cn3)n[nH]2)c1 [Compound 524, 2-[5-(2-Fluoro-5-methoxy-phenyl)-1H-[1,2,4]triazol-3-yl]-5-trifluoromethyl-pyridine]	< 4.72
Oc1ccc2ccccc2c1-c1nc(-c2ccc(C(F)(F)F)cn2)n[nH]1 [Compound 525, 1-[5-(5-trifluoromethyl-pyridin-2-yl)-2H-[1,2,4]triazol-3-yl]-naphthalen-2-ol]	< 4.72
FC(F)(F)c1ccc(-c2n[nH]c(-c3cccc(Br)c3)n2)nc1 [Compound 526, 2-[5-(3-Bromo-phenyl)-1H-[1,2,4]triazol-3-yl]-5-trifluoromethyl-pyridine]	< 4.72
FC(F)(F)c1ccc(-c2n[nH]c(-c3c(Cl)cccc3Cl)n2)nc1 [Compound 527, 2-[5-(2,6-Dichloro-phenyl)-1H-[1,2,4]triazol-3-yl]-5-trifluoromethyl-pyridine]	< 4.72
Fc1cc(Br)ccc1-c1nc(-c2ccc(C(F)(F)F)cn2)n[nH]1 [Compound 528, 2-[5-(4-Bromo-2-fluoro-phenyl)-1H-[1,2,4]triazol-3-yl]-5-trifluoromethyl-pyridine]	< 4.72
COc1ccc(Br)cc1-c1nc(-c2ccc(C(F)(F)F)cn2)n[nH]1 [Compound 529, 2-[5-(5-Bromo-2-methoxy-phenyl)-1H-[1,2,4]triazol-3-yl]-5-trifluoromethyl-pyridine]	< 4.72
FC(F)(F)c1cccnc1-c1n[nH]c(-c2cccc3ccccc23)n1 [Compound 530, 2-(5-Naphthalen-1-yl-1H-[1,2,4]triazol-3-yl)-3-trifluoromethyl-pyridine]	< 4.72
CC(C)(C)c1ccc(O)c(-c2nc(-c3ncccc3C(F)(F)F)n[nH]2)c1 [Compound 531, 4-tert-Butyl-2-[5-(3-trifluoromethyl-pyridin-2-yl)-2H-[1,2,4]triazol-3-yl]-phenol]	< 4.72
O=[N+]([O-])c1ccc(O)c(-c2nc(-c3ncccc3C(F)(F)F)n[nH]2)c1 [Compound 532, 4-Nitro-2-[5-(3-trifluoromethyl-pyridin-2-yl)-2H-[1,2,4]triazol-3-yl]-phenol]	< 4.72
Oc1ccc(F)cc1-c1nc(-c2ncccc2C(F)(F)F)n[nH]1 [Compound 533, 4-Fluoro-2-[5-(3-trifluoromethyl-pyridin-2-yl)-2H-[1,2,4]triazol-3-yl]-phenol]	< 4.72
COc1ccc(O)c(-c2nc(-c3ncccc3C(F)(F)F)n[nH]2)c1 [Compound 534, 4-Methoxy-2-[5-(3-trifluoromethyl-pyridin-2-yl)-2H-[1,2,4]triazol-3-yl]-phenol]	5.64
Oc1ccc(Cl)cc1-c1nc(-c2ncccc2C(F)(F)F)n[nH]1 [Compound 535, 4-Chloro-2-[5-(3-trifluoromethyl-pyridin-2-yl)-2H-[1,2,4]triazol-3-yl]-phenol]	5.39
CCOc1cccc(-c2nc(-c3ncccc3C(F)(F)F)n[nH]2)c1O [Compound 536, 6-Ethoxy-2-[5-(3-trifluoromethyl-pyridin-2-yl)-2H-[1,2,4]triazol-3-yl]-phenol]	< 4.72
Oc1cc(OCc2ccccc2)ccc1-c1nc(-c2ncccc2C(F)(F)F)n[nH]1 [Compound 537, 5-Benzyloxy-2-[5-(3-trifluoromethyl-pyridin-2-yl)-2H-[1,2,4]triazol-3-yl]-phenol]	< 4.72
